Entries after “also recorded” stand apart in the source; their conditions may differ.
Experiments:
[1] = molecular target: T1, LBs and LNs in DLB and MSA patient brains (Homo sapiens, UniProt P37840); experiment: ex vivo screening on DLB and MSA patient brain sections; type: binding
T1 construct: from tissue; host or cells: brain sections of DLB and MSA patients
Text: (§1) Ex vivo screening was extended into human DLB, MSA and AD patient samples. […] Since there are detectable α-Syn aggregates in AD patient brains, these compounds colocalized with p-S129 positive α-Syn inclusions.
(§2) The ex vivo screening was extended into human DLB, MSA and AD patient samples. Neurodegenerative disease of DLB (dementia with Lewy Bodies) and MSA belongs to synucleinopathies with well-defined Lewy bodies.

[2] = molecular target: T2, Lewy bodies in the brain sections from LBD patients (Homo sapiens, UniProt P37840); experiment: autoradiography with [18F]F0502B, human brain slices; type: binding; conditions: excessive cold compound
T2 construct: from tissue; host or cells: brain sections of LBD patients
Procedure: [^18F]F0502B was evaluated in vitro and ex vivo binding assays to validate its specificity. α-Syn, Tau and Aβ PFFs were respectively incubated with increasing concentrations of [^18F]F0502B. The binding data were analyzed by curve fitting using nonlinear regression to obtain Kd and Bmax values. The Kd and a Bmax manifested the specific binding affinity with different fibrils. […] Autoradiography with [^18F]F0502B in human brain slices was performed. […] Together, these findings support that F0502B specifically and tightly binds to α-Syn fibrils in the Lewy bodies.

α-Syn fibrils = α-Syn fibrils (Homo sapiens, UniProt P37840); experiment: competitive binding assay with α-Syn fibrils and [18F]F0502B; conditions: fixed concentrations of α-Syn fibrils and [18F]F0502B, increasing concentrations of cold compound
[3] = molecular target: T3, Lewy bodies in α-Syn A53T virus injected WT mice brain slices (Homo sapiens, UniProt P37840, A53T); experiment: staining of mouse brain slices with Lewy bodies; type: binding
T3 construct: from tissue; host or cells: brain (substantia nigra) of wild-type mice injected with α-Syn A53T virus

[4] = molecular target: T4, senile plaques in 5×FAD and 3×Tg mice brain sections (Homo sapiens, UniProt P05067); experiment: staining of mouse brain sections with senile plaques; type: binding
T4 construct: Aβ-enriched senile plaques; from tissue; host or cells: brain sections of 5×FAD and 3×Tg mice
T4 sequence (P05067 672-713 limits assumed): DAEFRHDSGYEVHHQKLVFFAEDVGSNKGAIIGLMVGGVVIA

α-Syn aggregated neurons = experiment: neuronal α-Syn aggregation model, fluorescent microscopy; type: cell-based; conditions: primary cultured neurons, AAV-α-Syn plus α-Syn PFFs
Text: A series of derivatives were synthesized by including an amino group and a methyl group on benzothiazole to increase the brain permeability and fluorescent signals. The derivatives were subsequently subjected to α-Syn PFFs binding assay and counter-screening with Tau and Aβ PFFs. […] These compounds were screened on the neuronal α-Syn, Tau and Aβ aggregation model for the binding selectivity. Primary cultured neurons were infected with AAV-α-Syn, AAV-Tau FL for 7 days, then treated with α-Syn, Tau or Aβ PFFs. In a few days, the positive compounds were added in the primary neurons with indicated aggregates and analyzed under fluorescent microscopy.
Primary cultured neurons were infected with AAV-α-Syn, AAV-Tau FL or AAV-APP fragment virus for 7 days, and then treated with α-Syn, Tau or Aβ PFFs by following the described protocols (Volpicelli-Daley et al., 2014). In a few days, the positive compounds were added in the primary neurons with indicated aggregation.

Aβ PFFs = molecular target: T5, Aβ PFFs (Homo sapiens, UniProt P05067); experiment: fluorescence spectroscopy titration with Aβ PFFs; type: binding; conditions: 0.08 μM fibrils, 5 μM small molecule; result in words
T5 construct: counter-screening with Tau and Aβ PFFs
T5 sequence (P05067 672-713 limits assumed): as above
Procedure: A fluorescent titration assay was conducted. The fluorescent emission intensities were determined with 0.08 μM of various fibrils in the presence of 5 μM of the small molecules.
To further investigate the selected compounds binding activities with α-Syn PFFs, fluorescence spectroscopy titrations were conducted to quantitatively measure compounds emission intensity when interacting with different concentrations of α-Syn PFFs. The UV spectrum of each compound was determined and selected for the optimal wavelength to conduct the fluorescence spectroscopic studies.

[5] = F0502B in vivo PK study and B/P ratios; design: species or system mouse; conditions: mice, i.v. 5 mg/kg
Procedure: To ensure that F0502B meets a PET tracer's kinetic criteria with rapid penetration into the brain and swift wash out, an in vivo PK study was performed in mice with i.v. injection of 5 mg/kg of F0502B.

[6] = system: senile plaques or NFT in AD; experiment: ex vivo screening on AD patient brain sections; type: binding, human
Text: as §1, §2

[7] = system: senile plaques and NFT in 5×FAD, 3×Tg and Tau P301S mice; experiment: brain section staining after in vivo administration, senile plaques and NFT; design: species or system mouse
Procedure: (§3) […] In 2 h, the mice were sacrificed and stained the mouse brain sections with anti-Aβ, AT8 and p-S129 and ThS, respectively.
(§4) The p-S129 positive Lewy bodies in A53T PD mice were further confirmed by anti-aggregated α-Syn 5G2 antibody.

[8] = system: NFT in Tau P301S and 3×Tg mice brain sections; experiment: staining of mouse brain sections with NFT; type: binding
Procedure: To further explore whether the positive compounds selectively bind to the Lewy bodies, α-Syn A53T patient-derived mutant virus injected WT mice brain slices were employed. These mice display extensive Lewy bodies in the SN.
To further explore whether the positive compounds selectively bind to the Lewy bodies, a α-Syn A53T patient-derived mutant virus was injected into WT mice brain slices. These mice display extensive Lewy bodies in the Substantial nigra (SN). Moreover, P301S mice expressed neurofibrillary tangles (NFT). The Lewy bodies were labeled with p-α-Syn S129 antibody and the positive aggregates were also labeled with the fluorescent signals from the small molecules. […] However, it was worth noting that almost none of the tested compounds were reactive with NFT.

α-Syn PFFs = α-Syn PFFs (Homo sapiens, UniProt P37840); experiment: fluorescence spectroscopy titration with α-Syn PFFs; type: binding; conditions: 0.08 μM fibrils, 5 μM small molecule; result in words
[9] = molecular target: T6, Lewy bodies positive with anti-p-α-Syn S129 in A53T PD mouse model (Homo sapiens, UniProt P37840, A53T); experiment: brain section staining after in vivo administration, Lewy bodies
T6 construct: from tissue; host or cells: brain (substantia nigra) of wild-type mice injected with α-Syn A53T virus
Procedure: as §3, §4

Tau PFFs = Tau PFFs (Homo sapiens, UniProt P10636); experiment: fluorescence spectroscopy titration with Tau PFFs; type: binding; conditions: 0.08 μM fibrils, 5 μM small molecule; result in words
Sequence of Tau PFFs (P10636 whole entry): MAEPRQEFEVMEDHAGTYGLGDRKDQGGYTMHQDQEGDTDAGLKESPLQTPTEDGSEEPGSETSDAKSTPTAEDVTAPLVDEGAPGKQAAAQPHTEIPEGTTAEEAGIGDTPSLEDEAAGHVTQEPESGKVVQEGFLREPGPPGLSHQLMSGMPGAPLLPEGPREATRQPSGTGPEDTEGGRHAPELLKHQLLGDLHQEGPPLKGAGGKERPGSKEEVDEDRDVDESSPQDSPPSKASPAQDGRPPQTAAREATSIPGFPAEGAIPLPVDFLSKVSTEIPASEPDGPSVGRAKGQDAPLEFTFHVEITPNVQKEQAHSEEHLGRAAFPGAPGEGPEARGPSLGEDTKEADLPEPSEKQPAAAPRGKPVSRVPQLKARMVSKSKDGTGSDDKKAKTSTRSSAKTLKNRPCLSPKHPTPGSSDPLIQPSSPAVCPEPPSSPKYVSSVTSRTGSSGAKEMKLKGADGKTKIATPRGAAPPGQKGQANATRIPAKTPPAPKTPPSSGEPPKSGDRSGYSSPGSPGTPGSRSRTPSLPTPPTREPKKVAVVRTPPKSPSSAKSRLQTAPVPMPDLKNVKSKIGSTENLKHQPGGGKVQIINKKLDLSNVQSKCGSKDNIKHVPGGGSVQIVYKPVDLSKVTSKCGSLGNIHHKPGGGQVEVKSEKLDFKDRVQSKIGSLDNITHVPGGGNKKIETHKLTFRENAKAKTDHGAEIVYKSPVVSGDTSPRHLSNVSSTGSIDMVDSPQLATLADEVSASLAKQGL

Cc1cc2nc(/C=C/c3ccc(O)c(Br)c3)sc2cc1N(C)CCOCCF [F0502B, (E)-2-bromo-4-(2-(6-((2-(2-fluoroethoxy)ethyl)(methyl)amino)-5-methylbenzo[d]thiazol-2-yl)vinyl)phenol]
staining of LBs and LNs [1]: specifically associated with α-Syn aggregates
blocking of [18F]F0502B binding in brain sections [2]: binding activities were blocked by excessive cold F0502B
displacement of [18F]F0502B from α-Syn fibrils (α-Syn fibrils): selectively stripped off by increasing concentrations of cold F0502B
staining of Lewy bodies (p-α-Syn S129 positive) [3]: specifically associated with α-Syn aggregates
staining of senile plaques [4]: not senile plaques or NFT from 5×FAD, 3×Tg and Tau P301S mice
fluorescent signal in α-Syn aggregated neurons (α-Syn aggregated neurons): specifically associated with α-Syn aggregates
binding to Aβ PFFs by fluorescent emission intensity (Aβ PFFs): barely bound to Aβ or Tau fibrils
C1 rate [5]: approximately 3.92 L/h/kg
decay in plasma ([5]; result in words): almost completely decayed at 8 h in the plasm
brain entry and accumulation ([5]; result in words, 5 mg/kg): swiftly entered the brain and accumulated in the brain compared to the plasma; also recorded: preferentially enriched in the brain
Kp at 0.5 h ([5]; mouse, brain, iv, 0.5 h, read-out: B/P ratio): 4.16
Kp at 1 h ([5]; mouse, brain, iv, 1 h, read-out: B/P ratio): 13.4
Kp at 4 h ([5]; mouse, brain, iv, 4 h, read-out: B/P ratio): 26
half-life ([5]; mouse, plasma, iv, read-out: half-life t1/2 (converted)): 1.16 h
staining of senile plaques or NFT (Aβ, AT8 positive aggregates) [6]: not senile plaques or NFT from 5×FAD, 3×Tg and Tau P301S mice or AD patients
staining of senile plaques and NFT ([7]; F0502B 5 mg/kg i.v., 2 h, 5×FAD, 3×Tg, Tau P301S mice): does not co-stain Aβ or Tau aggregates
staining of senile plaques or NFT by brain generated F0502B ([7]; two hours after tail injection of 2 mg/kg of compound 13, AD mouse models): not senile plaques or NFT in various AD mouse models
staining of NFT [8]: not senile plaques or NFT from 5×FAD, 3×Tg and Tau P301S mice
binding to α-Syn PFFs by fluorescent emission intensity (α-Syn PFFs): specifically associated with α-Syn fibrils
co-localisation with anti-p-S129 stained Lewy bodies ([9]; F0502B 5 mg/kg i.v., mice sacrificed in 2 h, ThS stain on sections): colocalized with both F0502B and ThS
staining of Lewy body by brain generated F0502B ([9]; two hours after tail injection of 2 mg/kg of compound 13, A53T mice): selectively stained Lewy body in A53T mice
binding to Tau PFFs by fluorescent emission intensity (Tau PFFs): barely bound to Aβ or Tau fibrils

Source: patent US11844846B2, “Styrylbenzothiazole derivatives and uses in imaging methods” (Emory University, priority 2018, dated 2023)
